What was measured:
delta opioid receptor = delta opioid receptor (Homo sapiens, UniProt P41143); assay: Filtration binding assay: delta opioid receptor
mu opioid receptor = mu opioid receptor (Homo sapiens, UniProt P35372); assay: Filtration binding assay: mu opioid receptor
kappa opioid receptor = kappa opioid receptor (Homo sapiens, UniProt P41145); assay: Filtration binding assay: kappa opioid receptor
Sequence of kappa opioid receptor (P41145 whole entry): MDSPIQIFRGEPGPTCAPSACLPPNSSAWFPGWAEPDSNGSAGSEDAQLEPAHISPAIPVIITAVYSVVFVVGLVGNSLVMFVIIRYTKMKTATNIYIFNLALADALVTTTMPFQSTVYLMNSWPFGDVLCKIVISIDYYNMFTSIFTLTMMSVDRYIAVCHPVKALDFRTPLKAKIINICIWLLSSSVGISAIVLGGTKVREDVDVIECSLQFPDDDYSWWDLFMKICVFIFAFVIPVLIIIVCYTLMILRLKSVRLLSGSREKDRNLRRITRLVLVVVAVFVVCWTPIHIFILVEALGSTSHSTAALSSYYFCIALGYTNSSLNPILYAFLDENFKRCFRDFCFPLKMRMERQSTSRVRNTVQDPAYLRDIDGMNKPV

Sequence of delta opioid receptor (P41143 whole entry): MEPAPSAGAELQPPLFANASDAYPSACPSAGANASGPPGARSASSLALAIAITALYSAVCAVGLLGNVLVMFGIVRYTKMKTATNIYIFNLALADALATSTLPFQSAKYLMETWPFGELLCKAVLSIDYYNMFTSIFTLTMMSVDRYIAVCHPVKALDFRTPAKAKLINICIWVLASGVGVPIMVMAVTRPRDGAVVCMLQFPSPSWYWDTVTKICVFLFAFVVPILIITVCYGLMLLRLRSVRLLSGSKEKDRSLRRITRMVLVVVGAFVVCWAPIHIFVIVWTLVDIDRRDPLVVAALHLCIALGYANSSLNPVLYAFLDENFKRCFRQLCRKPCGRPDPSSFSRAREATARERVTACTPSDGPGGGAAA
Sequence of mu opioid receptor (P35372 whole entry): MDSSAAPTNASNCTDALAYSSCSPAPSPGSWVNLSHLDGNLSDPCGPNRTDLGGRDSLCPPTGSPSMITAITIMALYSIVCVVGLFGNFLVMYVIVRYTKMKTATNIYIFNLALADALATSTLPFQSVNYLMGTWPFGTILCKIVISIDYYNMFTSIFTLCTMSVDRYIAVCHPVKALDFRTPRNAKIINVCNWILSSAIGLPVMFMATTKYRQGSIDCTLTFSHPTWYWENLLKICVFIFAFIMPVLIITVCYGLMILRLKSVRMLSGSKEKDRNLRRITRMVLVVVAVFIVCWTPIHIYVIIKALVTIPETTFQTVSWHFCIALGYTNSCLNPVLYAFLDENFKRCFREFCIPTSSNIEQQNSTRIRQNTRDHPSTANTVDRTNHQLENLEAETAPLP

SMILES	IC50 (delta opioid receptor) [nM]	IC50 (mu opioid receptor) [nM]	IC50 (kappa opioid receptor) [nM]	Ki (delta opioid receptor) [nM]	Ki (mu opioid receptor) [nM]	Ki (kappa opioid receptor) [nM]
COc1ccc(CCNC[C@H](O)CN2CN(c3ccc(F)cc3)C3(CCN(C4Cc5cccc6cccc4c56)CC3)C2=O)cc1OC (mixture of isomers) [compound 48]	> 10000	540	170	–	–	–
COc1ccc(CCNC[C@@H](O)CN2CN(c3ccc(F)cc3)C3(CCN(C4Cc5cccc6cccc4c56)CC3)C2=O)cc1OC (mixture of isomers) [compound 300]	4840	510	130	–	–	–
COC(=O)c1ccc(CNC[C@H](O)CN2CN(c3ccc(F)cc3)C3(CCN(C4Cc5cccc6cccc4c56)CC3)C2=O)cc1 (mixture of isomers) [compound 348]	> 10000	5420	930	–	–	–
CNCCCNCC(O)CN1CN(c2ccc(F)cc2)C2(CCN(CC3CCC4CC3C4(C)C)CC2)C1=O (mixture of isomers) [compound 664]	–	–	–	> 5000	260	720
CC(=O)NC(CSC[C@H](O)CN1CN(c2ccc(F)cc2)C2(CCN(CC3CCCCCCC3)CC2)C1=O)C(=O)O (single isomer, unassigned) [compound 447]	480	480	–	–	–	–
O=C1N(C[C@@H](O)CNCCN2CCOCC2)CN(c2ccc(F)cc2)C12CCN(CC1CCCCCCC1)CC2 [Compound #1]	> 10000	620	130	–	–	–
COc1ccc(CNC[C@@H](O)CN2CN(c3ccc(F)cc3)C3(CCN(CC4CCCCCCC4)CC3)C2=O)cc1OC [Compound #2]	> 10000	1200	190	–	–	–
O=C1N(C[C@H](O)CNCc2cc(C(F)(F)F)cc(C(F)(F)F)c2)CN(c2ccc(F)cc2)C12CCN(CC1CCCCCCC1)CC2 [Compound #3]	9160	4050	440	–	–	–
O=C1N(C[C@H](O)CNCCc2c[nH]cn2)CN(c2ccc(F)cc2)C12CCN(CC1CCCCCCC1)CC2 [Compound #4]	> 10000	160	110	–	–	–
O=C1N(C[C@@H](O)CNCc2ccc(F)cc2F)CN(c2ccc(F)cc2)C12CCN(CC1CCCCCCC1)CC2 [Compound #7]	7110	1380	130	–	–	–
O=C1N(C[C@@H](O)CNCCc2c[nH]cn2)CN(c2ccc(F)cc2)C12CCN(CC1CCCCCCC1)CC2 [Compound #28]	> 10000	410	180	–	–	–
O=C1N(C[C@@H](O)CNc2ccncc2)CN(c2ccc(F)cc2)C12CCN(CC1CCCCCCC1)CC2 [Compound #36, 8-Cyclooctylmethyl-1-(4-fluoro-phenyl)-3-[2-(S)-hydroxy-3-(pyridin-4-ylamino)-propyl]-1,3,8-triaza-spiro[4.5]decan-4-one]	1760	1760	230	–	–	–
O=C1N(C[C@@H](O)CNc2ccc(Br)cn2)CN(c2ccc(F)cc2)C12CCN(CC1CCCCCCC1)CC2 [compound 13]	–	620	120	–	–	–
COc1ccccc1CNC[C@H](O)CN1CN(c2ccc(F)cc2)C2(CCN(CC3CCCCCCC3)CC2)C1=O [compound 14]	–	1200	400	–	–	–
O=C1N(C[C@@H](O)CNCc2ccc(Br)cc2)CN(c2ccc(F)cc2)C12CCN(CC1CCCCCCC1)CC2 [compound 15]	–	850	330	–	–	–
COc1ccc(CNC[C@H](O)CN2CN(c3ccc(F)cc3)C3(CCN(CC4CCCCCCC4)CC3)C2=O)cc1OC [compound 22]	–	600	300	–	–	–
O=C1N(C[C@@H](O)CNCc2ccc([N+](=O)[O-])cc2)CN(c2ccc(F)cc2)C12CCN(CC1CCCCCCC1)CC2 [compound 23]	–	9200	490	–	–	–
O=C1N(C[C@@H](O)CNCCc2cccs2)CN(c2ccc(F)cc2)C12CCN(CC1CCCCCCC1)CC2 [compound 26]	–	790	290	–	–	–
O=C1N(C[C@@H](O)CNCc2ccc(Cl)cc2Cl)CN(c2ccc(F)cc2)C12CCN(CC1CCCCCCC1)CC2 [compound 31]	–	2930	280	–	–	–
O=C1N(C[C@@H](O)CN(CCc2ccccc2)Cc2ccccc2)CN(c2ccc(F)cc2)C12CCN(CC1CCCCCCC1)CC2 [compound 65]	–	580	510	–	–	–
CCOc1ccccc1NC[C@H](O)CN1CN(c2ccc(F)cc2)C2(CCN(CC3CCCCCCC3)CC2)C1=O [compound 281]	–	580	960	–	–	–
O=C1N(C[C@@H](O)CNc2ccc(C3CCCCC3)cc2)CN(c2ccc(F)cc2)C12CCN(CC1CCCCCCC1)CC2 [compound 285]	–	4780	2690	–	–	–
O=C1N(C[C@@H](O)CN(Cc2ccccc2)C[C@@H]2CCC[C@@H]2O)CN(c2ccc(F)cc2)C12CCN(CC1CCCCCCC1)CC2 [compound 289]	–	1390	190	–	–	–
O=C1N(C[C@@H](O)CN(Cc2ccccc2)C[C@@H]2CCCCC[C@@H]2O)CN(c2ccc(F)cc2)C12CCN(CC1CCCCCCC1)CC2 [compound 291]	–	4560	570	–	–	–
COc1ccc(CCNC[C@H](O)CN2CN(c3ccc(F)cc3)C3(CCN(Cc4cccc5cccc(C)c45)CC3)C2=O)cc1OC [compound 386]	–	> 10000	3690	–	–	–

SMILES	IC50 (delta opioid receptor) [nM]	IC50 (mu opioid receptor) [nM]	IC50 (kappa opioid receptor) [nM]	Ki (delta opioid receptor) [nM]	Ki (mu opioid receptor) [nM]	Ki (kappa opioid receptor) [nM]
Cc1cccc2cccc(CN3CCC4(CC3)C(=O)N(C[C@H](O)CN(Cc3ccccc3)C(C)(C)C)CN4c3ccc(F)cc3)c12 [compound 389]	–	7060	9840	–	–	–
COc1ccc(CCN(C)C[C@@H](O)CN2CN(c3ccc(F)cc3)C3(CCN(Cc4cccc5cccc(C)c45)CC3)C2=O)cc1OC [compound 391]	–	> 10000	2180	–	–	–
COc1ccc(CNC[C@@H](O)CN2CN(c3ccc(F)cc3)C3(CCN(Cc4cccc5cccc(C)c45)CC3)C2=O)cc1 [compound 392]	–	> 10000	1390	–	–	–
Cc1cccc2cccc(CN3CCC4(CC3)C(=O)N(C[C@H](O)CNc3ccncc3)CN4c3ccc(F)cc3)c12 [compound 393]	–	> 10000	1040	–	–	–
Cc1cccc2cccc(CN3CCC4(CC3)C(=O)N(C[C@@H](O)CN(Cc3ccccc3)C(C)(C)C)CN4c3ccc(F)cc3)c12 [compound 395]	–	1100	> 10000	–	–	–
Cc1cccc2cccc(CN3CCC4(CC3)C(=O)N(C[C@@H](O)CNCCN3CCOCC3)CN4c3ccc(F)cc3)c12 [compound 396]	–	> 10000	810	–	–	–
COc1ccc(CCN(C)C[C@H](O)CN2CN(c3ccc(F)cc3)C3(CCN(Cc4cccc5cccc(C)c45)CC3)C2=O)cc1OC [compound 399]	–	> 10000	750	–	–	–
O=C(O)c1ccc(CNC[C@H](O)CN2CN(c3ccc(F)cc3)C3(CCN(CC4CCCCCCC4)CC3)C2=O)cc1 [compound 452]	–	570	1520	–	–	–
CCCCNC[C@H](O)CN1CN(c2ccc(F)cc2)C2(CCN(CC3CCCCCCC3)CC2)C1=O [compound 454]	–	510	120	–	–	–
CSc1cccc(C(=O)N(Cc2ccc(C)cc2)C[C@H](O)CN2CN(c3ccc(F)cc3)C3(CCN(CC4CCCCCCC4)CC3)C2=O)n1 [compound 455]	–	5160	380	–	–	–
COc1ccc(CCN(C)C[C@H](O)CN2CN(c3ccc(F)cc3)C3(CCN(Cc4c(Cl)cccc4C(F)(F)F)CC3)C2=O)cc1OC [compound 457]	–	> 10000	9430	–	–	–
O=C1N(C[C@@H](O)CNc2ccccc2)CN(c2ccc(F)cc2)C12CCN(Cc1c(Cl)cccc1C(F)(F)F)CC2 [compound 458]	–	> 10000	1450	–	–	–
CN(C)CCN(Cc1ccccc1)C[C@H](O)CN1CN(c2ccc(F)cc2)C2(CCN(Cc3c(Cl)cccc3C(F)(F)F)CC2)C1=O [compound 459]	–	> 10000	3210	–	–	–
COC(=O)C(N)CSC[C@H](O)CN1CN(c2ccc(F)cc2)C2(CCN(CC3CCCCCCC3)CC2)C1=O (stereo partly drawn) [compound 460]	–	900	830	–	–	–
Cc1cccc2cccc(CN3CCC4(CC3)C(=O)N(C[C@@H](O)CO)CN4c3ccc(F)cc3)c12 [compound 554]	–	> 10000	9470	–	–	–
O=C1N(C[C@@H](O)CNc2ccncc2)CN(c2ccc(F)cc2)C12CCN(Cc1cc(C(F)(F)F)cc(C(F)(F)F)c1)CC2 [compound 608]	–	≥ 10000	≥ 10000	–	–	–
O=C1N(C[C@@H](O)CNCc2cccnc2)CN(c2ccc(F)cc2)C12CCN(Cc1cc(C(F)(F)F)cc(C(F)(F)F)c1)CC2 [compound 609]	–	≥ 10000	≥ 10000	–	–	–
CCOC(=O)CN(Cc1ccccc1)C[C@H](O)CN1CN(c2ccc(F)cc2)C2(CCN(Cc3cc(C(F)(F)F)cc(C(F)(F)F)c3)CC2)C1=O [compound 670]	–	≥ 10000	≥ 10000	–	–	–
CCCCN(Cc1ccccc1)C[C@H](O)CN1CN(c2ccc(F)cc2)C2(CCN(Cc3cc(C(F)(F)F)cc(C(F)(F)F)c3)CC2)C1=O [compound 671]	–	≥ 10000	≥ 10000	–	–	–
CC(c1ccccc1)N(Cc1ccccc1)C[C@H](O)CN1CN(c2ccc(F)cc2)C2(CCN(Cc3cc(C(F)(F)F)cc(C(F)(F)F)c3)CC2)C1=O (stereo partly drawn) [compound 672]	–	≥ 10000	≥ 10000	–	–	–
COc1ccc(CCN(C)C[C@H](O)CN2CN(c3ccc(F)cc3)C3(CCN(Cc4cc(C(F)(F)F)cc(C(F)(F)F)c4)CC3)C2=O)cc1OC [compound 673]	–	≥ 10000	≥ 10000	–	–	–
CN(C)CCN(Cc1ccccc1)C[C@H](O)CN1CN(c2ccc(F)cc2)C2(CCN(Cc3cc(C(F)(F)F)cc(C(F)(F)F)c3)CC2)C1=O [compound 674]	–	≥ 10000	≥ 10000	–	–	–
O=C1N(C[C@@H](O)CN2CCc3ccccc3C2)CN(c2ccc(F)cc2)C12CCN(Cc1cc(C(F)(F)F)cc(C(F)(F)F)c1)CC2 [compound 682]	–	≥ 10000	≥ 10000	–	–	–
O=C1N(C[C@@H](O)CN2CCN(c3cccc(C(F)(F)F)c3)CC2)CN(c2ccc(F)cc2)C12CCN(Cc1cc(C(F)(F)F)cc(C(F)(F)F)c1)CC2 [compound 683]	–	≥ 10000	≥ 10000	–	–	–
CCN(CC)C(=O)C1CCCN(C[C@H](O)CN2CN(c3ccc(F)cc3)C3(CCN(Cc4cc(C(F)(F)F)cc(C(F)(F)F)c4)CC3)C2=O)C1 (stereo partly drawn) [compound 686]	–	≥ 10000	2520	–	–	–
